Patent US7935526B2, “hERG channel-expressing cell” (priority 2003, dated 2011)

Tested on: hERG channel-expressing cells
Procedure: Specifically, changes in membrane potential may be measured by performing the following operations in a manner as described below. The hERG channel-expressing cell of the invention is cultured for a specific period of time by the appropriate method as described above and suspended in a buffer suitable for measurement. […] Preferably, phosphate buffered saline (pH 7.4) is used. It is preferred that the cell suspension be prepared to give a concentration of 0.2×10^5 cells/ml to 1.0×10^6 cells/ml. Subsequently, the cell suspension is plated on plates (such as Biocoat Poly-D-Lysine 384-Well Black/Clear Plate; BECKTON DICKINSON) and cultured further Cells may be plated at 500 cells/well to 25000 cells/well. Preferably, cells are cultured for about two days after the plating. […] About one hour after the addition of Component A, changes in membrane potential may be measured with FLIPR (Molecular Devices) or FDSS6000 (Hamamatsu Photonics). […] Measurement may be performed at room temperature. hERG inhibitory activity may be calculated from the change in fluorescence intensity caused by the addition of the test compound. […]
About one hour after the addition of Component A, changes in membrane potential were measured with FDSS6000. […] Measurement was performed at room temperature. hERG inhibitory activity was calculated from the fluorescence intensity change for 5 min after the addition of the test substance. […]

Structure (SMILES): [Cl-].[K+] [KCl]
- changes in membrane potential (fluorescence intensity change): the membrane potential was depolarized
